A value given as a limit tells only on which side of the number the result lay.

Chain of Phosphatidylinositol 4,5-bisphosphate 3-kinase catalytic subunit alpha isoform (P42336 whole entry, canonical isoform): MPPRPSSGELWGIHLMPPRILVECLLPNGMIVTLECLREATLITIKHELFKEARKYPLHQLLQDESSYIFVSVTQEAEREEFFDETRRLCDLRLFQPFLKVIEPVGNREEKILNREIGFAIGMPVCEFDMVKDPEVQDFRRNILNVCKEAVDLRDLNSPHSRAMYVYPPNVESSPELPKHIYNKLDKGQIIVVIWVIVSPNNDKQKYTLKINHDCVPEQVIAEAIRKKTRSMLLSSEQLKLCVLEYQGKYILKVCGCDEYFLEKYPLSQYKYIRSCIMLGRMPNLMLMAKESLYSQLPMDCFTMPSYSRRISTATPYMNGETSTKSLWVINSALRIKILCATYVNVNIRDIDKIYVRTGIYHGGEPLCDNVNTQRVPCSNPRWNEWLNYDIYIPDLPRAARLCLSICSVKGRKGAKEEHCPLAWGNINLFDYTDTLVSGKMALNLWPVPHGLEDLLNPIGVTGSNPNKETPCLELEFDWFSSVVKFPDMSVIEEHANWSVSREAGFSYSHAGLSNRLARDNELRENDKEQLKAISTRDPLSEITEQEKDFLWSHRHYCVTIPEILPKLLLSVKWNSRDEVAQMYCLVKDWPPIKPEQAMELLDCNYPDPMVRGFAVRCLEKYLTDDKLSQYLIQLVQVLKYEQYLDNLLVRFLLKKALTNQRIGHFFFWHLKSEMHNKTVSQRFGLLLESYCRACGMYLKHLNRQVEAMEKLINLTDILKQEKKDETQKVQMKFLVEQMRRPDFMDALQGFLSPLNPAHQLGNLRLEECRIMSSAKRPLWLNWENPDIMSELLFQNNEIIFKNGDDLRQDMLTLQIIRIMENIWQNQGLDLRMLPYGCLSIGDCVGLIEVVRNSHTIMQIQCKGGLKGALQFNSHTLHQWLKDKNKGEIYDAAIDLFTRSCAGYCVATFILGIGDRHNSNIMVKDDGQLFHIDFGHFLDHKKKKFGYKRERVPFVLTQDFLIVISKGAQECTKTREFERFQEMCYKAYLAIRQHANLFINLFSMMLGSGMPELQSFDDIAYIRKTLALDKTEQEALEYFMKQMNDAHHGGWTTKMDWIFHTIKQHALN

The first experiment has as its system MDA-MB-231. Description: Antiproliferative activity against human MDA-MB-231 cells.
Settings: not given
The format is functional, cell-based.
For `COc1ccc(-c2n[nH]c(=O)c3[nH]c4ccc(OC)cc4c23)cc1`, the IC50 (usually the midpoint of a concentration-inhibition curve) is greater than 25 µM.
On the same count and under the same terms, the same measure for `COc1ccc2[nH]c3c(=O)[nH]nc(-c4ccc(C(F)(F)F)cc4)c3c2c1`: greater than 25 µM; for `COc1ccc2[nH]c3c(=O)[nH]nc(-c4ccco4)c3c2c1`: 0.3 µM; for `COc1ccc(Nc2cc(-c3ccccc3)n[nH]c2=O)cc1`: greater than 25 µM.
Still for that read-out and setting: the same measure for `COc1ccc(Nc2cc(-c3ccco3)n[nH]c2=O)cc1`: greater than 25 µM; for `COc1ccc(Nc2cc(-c3ccncc3)n[nH]c2=O)cc1`: greater than 25 µM.

Another experiment has as its target Phosphatidylinositol 4,5-bisphosphate 3-kinase catalytic subunit alpha isoform (Homo sapiens, UniProt P42336). Description: Inhibition of p110alpha (unknown origin).
Settings: not given
As for `COc1ccc2[nH]c3c(=O)[nH]nc(-c4ccccc4)c3c2c1`, the IC50 was greater than 10 µM.
Same read-out and setting: the same measure for `COc1ccc(-c2n[nH]c(=O)c3[nH]c4ccc(OC)cc4c23)cc1`: greater than 10 µM; for `COc1ccc2[nH]c3c(=O)[nH]nc(-c4ccc(C(F)(F)F)cc4)c3c2c1`: 6.9 µM; for `COc1ccc2[nH]c3c(=O)[nH]nc(-c4ccco4)c3c2c1`: greater than 10 µM.
As to `COc1ccc(Nc2cc(-c3ccccc3)n[nH]c2=O)cc1`, the half-inhibitory concentration (IC50) is greater than 10 µM.
Regarding `COc1ccc(Nc2cc(-c3ccco3)n[nH]c2=O)cc1`, the IC50 is greater than 10 µM.
In turn, `COc1ccc(Nc2cc(-c3ccncc3)n[nH]c2=O)cc1` showed an IC50 greater than 10 µM.

Tested on in another experiment: not listed separately
The experiment can be described thus: Antiproliferative activity against human PC3 cells. The class given is functional, cell-based. As to conditions: PC-3.
As to `COc1ccc2[nH]c3c(=O)[nH]nc(C)c3c2c1`, inhibition was half-maximal at 7 µM (IC50).
Same read-out and setting: the same measure for `COc1ccc(-c2n[nH]c(=O)c3[nH]c4ccc(OC)cc4c23)cc1`: greater than 25 µM; for `COc1ccc2[nH]c3c(=O)[nH]nc(-c4ccc(C(F)(F)F)cc4)c3c2c1`: greater than 25 µM.
On the same count and under the same terms, the same measure for `COc1ccc2[nH]c3c(=O)[nH]nc(-c4ccco4)c3c2c1`: greater than 25 µM; for `COc1ccc(Nc2cc(-c3ccccc3)n[nH]c2=O)cc1`: greater than 25 µM; for `COc1ccc(Nc2cc(-c3ccco3)n[nH]c2=O)cc1`: greater than 25 µM.
On the same count and under the same terms, the same measure for `COc1ccc(Nc2cc(-c3ccncc3)n[nH]c2=O)cc1`: greater than 25 µM.

Tested on in the next experiment: not listed separately
The experiment can be described thus: Antiproliferative activity against human Caco2 cells. The class given is functional, cell-based. The following applies: Caco-2.
For `COc1ccc2[nH]c3c(=O)[nH]nc(C)c3c2c1`, half-maximal inhibition (IC50) required 8 µM.
The same measure, in the same setting: the same measure for `COc1ccc(-c2n[nH]c(=O)c3[nH]c4ccc(OC)cc4c23)cc1`: greater than 25 µM; for `COc1ccc2[nH]c3c(=O)[nH]nc(-c4ccc(C(F)(F)F)cc4)c3c2c1`: greater than 25 µM.
Still for that read-out and setting: the same measure for `COc1ccc2[nH]c3c(=O)[nH]nc(-c4ccco4)c3c2c1`: 0.6 µM.
For `COc1ccc(Nc2cc(-c3ccccc3)n[nH]c2=O)cc1`, the IC50 is greater than 25 µM.
The same measure, in the same setting: the same measure for `COc1ccc(Nc2cc(-c3ccco3)n[nH]c2=O)cc1`: greater than 25 µM.
On the same count and under the same terms, the same measure for `COc1ccc(Nc2cc(-c3ccncc3)n[nH]c2=O)cc1`: greater than 25 µM.

Tested on in the next experiment: not listed separately
The experiment can be described thus: Antiproliferative activity against human HCT116 cells assessed as decrease in cell growth. The class given is functional, HCT-116.
Settings: not given
`COc1ccc2[nH]c3c(=O)[nH]nc(-c4ccco4)c3c2c1`: the “inhibition (INH)” value worked out at 50%.

Tested on in another experiment: not listed separately
The experiment can be described thus: Antiproliferative activity against human HuH7 cells assessed as decrease in cell growth.
Settings: not given
The format is functional, Huh-7.
`COc1ccc2[nH]c3c(=O)[nH]nc(-c4ccco4)c3c2c1`: the “inhibition (INH)” value was 50%.

Tested on in the next experiment: not listed separately
The experiment can be described thus: Antiproliferative activity against human fibroblast cells.
Settings: not given
The class given is cell-based.
As for `COc1ccc2[nH]c3c(=O)[nH]nc(C)c3c2c1`, half-maximal inhibition (IC50) required 20 µM.
As to `COc1ccc(-c2n[nH]c(=O)c3[nH]c4ccc(OC)cc4c23)cc1`, the half-maximal inhibitory concentration (IC50) was greater than 25 µM.
Still for that read-out and setting: the same measure for `COc1ccc2[nH]c3c(=O)[nH]nc(-c4ccc(C(F)(F)F)cc4)c3c2c1`: greater than 25 µM.
On to `COc1ccc2[nH]c3c(=O)[nH]nc(-c4ccco4)c3c2c1`, for which the half-maximal inhibitory concentration (IC50) was greater than 25 µM.
Molecule `COc1ccc(Nc2cc(-c3ccccc3)n[nH]c2=O)cc1` registered an IC50 greater than 25 µM.
The same measure, in the same setting: the same measure for `COc1ccc(Nc2cc(-c3ccco3)n[nH]c2=O)cc1`: greater than 25 µM; for `COc1ccc(Nc2cc(-c3ccncc3)n[nH]c2=O)cc1`: greater than 25 µM.

Another experiment addresses Glycogen synthase kinase-3 (Homo sapiens, UniProt P49840+P49841). The experiment can be described thus: Inhibition of GSK3alpha/beta (unknown origin). The format is protein assay.
Settings: not given
With `COc1ccc2[nH]c3c(=O)[nH]nc(C)c3c2c1`, the IC50 was greater than 10 µM.
`COc1ccc2[nH]c3c(=O)[nH]nc(-c4ccccc4)c3c2c1` yielded an IC50 of 1.3 µM.
In the case of `COc1ccc(-c2n[nH]c(=O)c3[nH]c4ccc(OC)cc4c23)cc1`, the IC50 stood at 1.4 µM.
With `COc1ccc2[nH]c3c(=O)[nH]nc(-c4ccc(C(F)(F)F)cc4)c3c2c1`, the IC50 is greater than 10 µM.
Still for that read-out and setting: the same measure for `COc1ccc2[nH]c3c(=O)[nH]nc(-c4ccco4)c3c2c1`: greater than 10 µM.
On the same count and under the same terms, the same measure for `COc1ccc(Nc2cc(C)n[nH]c2=O)cc1`: greater than 10 µM; for `COc1ccc(Nc2cc(-c3ccccc3)n[nH]c2=O)cc1`: greater than 10 µM; for `COc1ccc(Nc2cc(-c3ccc(OC)cc3)n[nH]c2=O)cc1`: 2.5 µM.
Still for that read-out and setting: the same measure for `COc1ccc(Nc2cc(-c3ccco3)n[nH]c2=O)cc1`: greater than 10 µM.
`COc1ccc(Nc2cc(-c3ccncc3)n[nH]c2=O)cc1` had a half-maximal inhibitory concentration (IC50) of 9.6 µM.

The subject of another experiment is MDA-MB-231. The experiment can be described thus: Antiproliferative activity against human MDA-MB-231 cells assessed as decrease in cell growth. The class given is functional.
Settings: not given
On to `COc1ccc2[nH]c3c(=O)[nH]nc(-c4ccco4)c3c2c1`, for which the “inhibition (INH)” value is reported as 50%.

The target of another experiment is Dual specificity tyrosine-phosphorylation-regulated kinase 1A (Homo sapiens, UniProt Q13627). Description: Inhibition of DYRK1A (unknown origin).
Settings: not given
As for `COc1ccc2[nH]c3c(=O)[nH]nc(C)c3c2c1`, the IC50 turned out to be 5 µM.
Still for that read-out and setting: the same measure for `COc1ccc2[nH]c3c(=O)[nH]nc(-c4ccccc4)c3c2c1`: greater than 10 µM; for `COc1ccc(-c2n[nH]c(=O)c3[nH]c4ccc(OC)cc4c23)cc1`: 1.5 µM.
In the case of `COc1ccc2[nH]c3c(=O)[nH]nc(-c4ccc(C(F)(F)F)cc4)c3c2c1`, the concentration for half-maximal inhibition (IC50) is greater than 10 µM.
On the same count and under the same terms, the same measure for `COc1ccc2[nH]c3c(=O)[nH]nc(-c4ccco4)c3c2c1`: 0.22 µM.
The molecule `COc1ccc(Nc2cc(C)n[nH]c2=O)cc1` yielded an IC50 greater than 10 µM.
Same read-out and setting: the same measure for `COc1ccc(Nc2cc(-c3ccccc3)n[nH]c2=O)cc1`: greater than 10 µM; for `COc1ccc(Nc2cc(-c3ccc(OC)cc3)n[nH]c2=O)cc1`: 5.1 µM; for `COc1ccc(Nc2cc(-c3ccco3)n[nH]c2=O)cc1`: greater than 10 µM.
Same read-out and setting: the same measure for `COc1ccc(Nc2cc(-c3ccncc3)n[nH]c2=O)cc1`: 0.61 µM.

Another experiment deals with NCI-H727. The experiment can be described thus: Antiproliferative activity against human NCI-H727 cells. The format is functional, cell-based.
Settings: not given
`COc1ccc(-c2n[nH]c(=O)c3[nH]c4ccc(OC)cc4c23)cc1` came in with an IC50 greater than 25 µM.
`COc1ccc2[nH]c3c(=O)[nH]nc(-c4ccc(C(F)(F)F)cc4)c3c2c1` showed an IC50 greater than 25 µM.
`COc1ccc2[nH]c3c(=O)[nH]nc(-c4ccco4)c3c2c1` came in with an IC50 greater than 25 µM.
The same measure, in the same setting: the same measure for `COc1ccc(Nc2cc(-c3ccccc3)n[nH]c2=O)cc1`: greater than 25 µM; for `COc1ccc(Nc2cc(-c3ccco3)n[nH]c2=O)cc1`: greater than 25 µM; for `COc1ccc(Nc2cc(-c3ccncc3)n[nH]c2=O)cc1`: greater than 25 µM.

The target in another experiment is Cyclin-dependent kinase 5/CDK5 activator 1 (Homo sapiens, UniProt Q00535). The experiment can be described thus: Inhibition of CDK5/p25 (unknown origin). The class given is protein-complex assay.
Chain of Cyclin-dependent kinase 5/CDK5 activator 1 (Q00535 whole entry): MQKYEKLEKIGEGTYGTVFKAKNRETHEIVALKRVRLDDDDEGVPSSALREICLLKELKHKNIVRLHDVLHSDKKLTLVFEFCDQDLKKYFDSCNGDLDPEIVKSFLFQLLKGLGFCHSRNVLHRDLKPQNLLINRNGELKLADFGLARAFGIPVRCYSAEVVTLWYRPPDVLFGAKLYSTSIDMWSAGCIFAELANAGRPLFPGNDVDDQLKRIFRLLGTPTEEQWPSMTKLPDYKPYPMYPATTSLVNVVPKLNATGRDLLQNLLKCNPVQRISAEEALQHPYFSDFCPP
Chain of Cyclin-dependent kinase 5/CDK5 activator 1 (Q15078 whole entry, further chain): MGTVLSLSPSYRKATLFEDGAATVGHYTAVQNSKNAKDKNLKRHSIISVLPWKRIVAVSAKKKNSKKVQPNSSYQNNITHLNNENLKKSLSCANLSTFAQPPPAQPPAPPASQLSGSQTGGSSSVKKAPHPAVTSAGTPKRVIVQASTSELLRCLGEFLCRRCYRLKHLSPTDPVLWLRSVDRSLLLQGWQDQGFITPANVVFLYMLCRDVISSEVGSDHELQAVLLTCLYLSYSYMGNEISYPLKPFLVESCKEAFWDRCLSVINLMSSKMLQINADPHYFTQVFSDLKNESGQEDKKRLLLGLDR
Settings: not given
`COc1ccc2[nH]c3c(=O)[nH]nc(C)c3c2c1` displayed an IC50 greater than 10 µM.
The molecule `COc1ccc(-c2n[nH]c(=O)c3[nH]c4ccc(OC)cc4c23)cc1` came in with an IC50 greater than 10 µM.
On the same count and under the same terms, the same measure for `COc1ccc2[nH]c3c(=O)[nH]nc(-c4ccc(C(F)(F)F)cc4)c3c2c1`: greater than 10 µM.
The molecule `COc1ccc2[nH]c3c(=O)[nH]nc(-c4ccco4)c3c2c1` had a 50% inhibitory concentration (IC50) greater than 10 µM.
On to `COc1ccc(Nc2cc(C)n[nH]c2=O)cc1`, for which the IC50 is greater than 10 µM.
Still for that read-out and setting: the same measure for `COc1ccc(Nc2cc(-c3ccccc3)n[nH]c2=O)cc1`: greater than 10 µM; for `COc1ccc(Nc2cc(-c3ccc(OC)cc3)n[nH]c2=O)cc1`: greater than 10 µM; for `COc1ccc(Nc2cc(-c3ccco3)n[nH]c2=O)cc1`: greater than 10 µM.
The same measure, in the same setting: the same measure for `COc1ccc(Nc2cc(-c3ccncc3)n[nH]c2=O)cc1`: greater than 10 µM.

Tested on in another experiment: not listed separately
The experiment can be described thus: Antiproliferative activity against human HCT116 cells. The class given is functional, cell-based. The following applies: HCT-116.
`COc1ccc2[nH]c3c(=O)[nH]nc(C)c3c2c1` returned an IC50 of 15 µM.
Consider `COc1ccc(-c2n[nH]c(=O)c3[nH]c4ccc(OC)cc4c23)cc1`, for which the IC50 is greater than 25 µM.
Still for that read-out and setting: the same measure for `COc1ccc2[nH]c3c(=O)[nH]nc(-c4ccc(C(F)(F)F)cc4)c3c2c1`: greater than 25 µM.
On the same count and under the same terms, the same measure for `COc1ccc2[nH]c3c(=O)[nH]nc(-c4ccco4)c3c2c1`: 3 µM.
Still for that read-out and setting: the same measure for `COc1ccc(Nc2cc(-c3ccccc3)n[nH]c2=O)cc1`: greater than 25 µM.
Consider `COc1ccc(Nc2cc(-c3ccco3)n[nH]c2=O)cc1`, for which the IC50 was greater than 25 µM.
`COc1ccc(Nc2cc(-c3ccncc3)n[nH]c2=O)cc1` displayed a half-inhibitory concentration (IC50) greater than 25 µM.

Tested on in a further experiment: not listed separately
Description: Antiproliferative activity against human HuH7 cells. The following applies: Huh-7. The class given is functional, cell-based.
With `COc1ccc2[nH]c3c(=O)[nH]nc(C)c3c2c1`, inhibition was half-maximal at 3 µM (IC50).
On the same count and under the same terms, the same measure for `COc1ccc(-c2n[nH]c(=O)c3[nH]c4ccc(OC)cc4c23)cc1`: greater than 25 µM.
Still for that read-out and setting: the same measure for `COc1ccc2[nH]c3c(=O)[nH]nc(-c4ccc(C(F)(F)F)cc4)c3c2c1`: greater than 25 µM; for `COc1ccc2[nH]c3c(=O)[nH]nc(-c4ccco4)c3c2c1`: 0.25 µM.
Turning to `COc1ccc(Nc2cc(-c3ccccc3)n[nH]c2=O)cc1`, the IC50 was greater than 25 µM.
Still for that read-out and setting: the same measure for `COc1ccc(Nc2cc(-c3ccco3)n[nH]c2=O)cc1`: greater than 25 µM; for `COc1ccc(Nc2cc(-c3ccncc3)n[nH]c2=O)cc1`: greater than 25 µM.

These data come from ChEMBL document CHEMBL3351708, “Synthesis of new pyridazino[4,5-b]indol-4-ones and pyridazin-3(2H)-one analogs as DYRK1A inhibitors” (Bioorg Med Chem Lett, 2014).
